Test results published in US7432107B2, “Cardiac hormones for assessing cardiovascular risk” (Roche Diagnostics Operations, Inc., priority 2005, dated 2008).

What was measured:
[1] = 48 hours at room temperature or at 4° Celsius; cited from earlier work
[2] = cited from earlier work
[3] = design: species or system patients; conditions: human, in vivo, 24 weeks
Method: NT-proBNP was measured in baseline serum samples from 433 patients entering a prospective study, designed primarily to define the therapeutic effect of a novel metallo-proteinase inhibitor in osteoarthritis (OA). Cardiovascular adverse events (CV-AEs) were monitored and related to the concomitant use of cox-2 inhibitors or NSAIDs or prostaglandin metabolism influencing steroids. In a retrospective analysis the question was evaluated whether CV AEs in patients receiving anti-inflammatory drugs could have been predicted from elevated NT-proBNP values. […]
Permitted rescue anti-inflammatory drugs including cox-2 inhibitors and NSAIDs or steroids for this trial were aspirin, diclofenac sodium, diflunisal, etodolac, fenoprofen, ibuprofen, ketoprofen, naproxen, nabumetone, oxaprozin, piroxicam, sodium salicylate, choline magnesium salicylate, celecoxib, rofecoxib or tolmetin. […] Patients were not enquired actively for the occurrence of angina pectoris, signs or symptoms of congestive heart failure, or arterial hypertension, nor was the ECG routinely evaluated for the occurrence of new Q-waves or new bundle branch block. […]

[4] = cited from earlier work; remark: listed apart in the source

BNP: active natriuretic hormone of 32 amino acids, cleaved from proBNP
concentration loss on storage [1]: at least 20%
in-vivo half-life ([2]; in vivo): 0.333 h

CC(=O)Nc1ccc(O)cc1 [acetaminophen]
Hazard Ratio of covariate (takes drug at baseline), time to CV adverse events [3]: 0.653

CS(=O)(=O)c1ccc(C2=C(c3ccccc3)C(=O)OC2)cc1 [Rofecoxib]
additional cardiovascular incidents (myocardial infarction, stroke) ([4]; 25 mg compared with placebo, after 18 months of follow-up): 16 per 1,000 treated patients
blood pressure levels ([4]; 25 mg versus placebo, early post-observation phase): higher blood pressure levels
rise in the rate of serious thromboembolic incidents ([4]; APPROVE study): 3.9 times

B1: NT-proBNP: N-terminal pro peptide of 76 amino acids, cleaved from proBNP; inactive counterpart of BNP (protein, UniProt P16860 27-102, looked up)
NT-proBNP: HPLGSPGSASDLETSGLQEQRNHLQGKLSELQVEQTSLEPLQESPRPTGVWKSREVATEGIRGHRKMVLYTLRAPR
modifications: NT-proBNP
in-vivo half-life, longer than that of BNP ([2]; difference to BNP): 2 h
